Results from patent US20010053797A1 (priority 1998, published 2001).
“Also recorded” adds a separate entry of the source.

Assays:
[1] = system: cortical neurons and glia; assay: Chemical hypoxia (azide) and glucose deprivation in cortical cell cultures, medium LDH; assay type: cell-based, Swiss Webster mice; conditions: 3 mM azide 30 min with compound; LDH 21-25 h later
Experimental: Primary cultures containing both cortical neurons and glia were prepared from gravid Swiss Webster mice as previously described. (Regan , R. F. and Choi, D. W., The effect of NMDA, AMPA/kainate, and calcium channel antagonists on traumatic cortical neuronal injury in culture, Brain Res, 633: 236-242, 1994). Plating medium consisted of Eagle's minimal essential medium (MEM), 5% equine serum, 5% fetal bovine serum, 2 mM glutamine, and 23 mM glucose. Cultures were incubated in 5% CO2 at 37° C. Two-thirds of the culture medium was exchanged twice weekly with MEM containing 10% equine serum, 2 mM glutamine, and 23 mM glucose. Glial cell division was inhibited at 4-7 days in vitro with 10^−5 M cytosine arabinoside.
Chemical hypoxia was induced with 3 mM azide, which unlike cyanide is not volatile and has little effect on copper-zinc and manganese superoxide dismutases at low millimolar concentrations. (Misra, H. P. and Fridovich, I., Inhibition of superoxide dismutases by azide, Arch Biochem Biophys 189: 317-322, 1978). Experiments were conducted at 13-16 days in vitro in a glucose-free buffer containing 116 mM NaCl, 5.4 mM KCl, 1.8 mM CaCl2, 1 mM NaH2PO4, 26.2 mM NaHCO3, 0.8 mM MgSO4, and amino acids (MEM amino acids, Sigma Chemical Co., St. Louis, Mo., U.S.A.). After incubation for 30-90 min at 37° C. in 5% CO2, cultures were washed into MEM containing 10 mM glucose and were returned to the incubator.
Cell death was estimated 21-25 h after azide exposure by inspection under phase-contrast microscopy, and was quantified by assaying lactate dehydrogenase (LDH) activity in the medium, as previously described. (Regan, R. F. and Panter, S. S., Traumatic neuronal injury in cortical cell culture is attenuated by 21-aminosteroids, Brain Res, 682: 144-150, 1995). Medium LDH in this culture system is an accurate marker of neuronal death that correlates well with cell counts. (Koh, J. Y. and Choi, D. W., Vulnerability of cultured cortical neurons to damage by excitotoxins: Differential susceptibility of neurons containing NADPH-diaphorase, J Neurosci 8: 2153-2163, 1988). […] (Koh, J. Y. and Choi, D. W., 1988). The LDH activity in the medium of sister cultures exposed to sham wash alone was subtracted from all values to obtain the LDH signal associated specifically with neurotoxin exposure.
Data were analyzed by one-way analysis of variance. Differences between groups and a single mean were assessed with the Dunnett multiple comparisons test; when groups were compared to more than one mean, the Tukey-Kramer post hoc test was used.

[2] = system: cortical neurons and glia; conditions: 10-100 μM, 30 min in MEM without azide
[3] = system: murine cortical cell cultures (neurons), NMDA receptor; assay: NMDA neurotoxicity in murine cortical cell cultures, medium LDH; assay type: cell-based, Swiss Webster mice; conditions: compound added with low micromolar NMDA, 20-25 h
Experimental: Cultures were incubated in 5% CO2 at 37° C.
Experiments were conducted at 13-15 days in vitro.

With `OCCS` [mercaptoethanol] the “effect on azide neurotoxicity in glucose-free buffer (neuronal death)” value [1] was “potentiate; also recorded: concentration-toxicity profile that was similar to GSH”, the “toxicity of compound alone” value [2] was “nontoxic” and the “effect on NMDA neurotoxicity (neuronal death, medium LDH)” value [3] was “markedly enhanced”. The “effect on NMDA neurotoxicity (neuronal death, medium LDH)” value ([3]; listed as Mercaptoethanol) was “increased NMDA neurotoxicity to a degree comparable to that of glutathione”.
